Experimental findings from patent US10444149B2, “Fluorescent compounds as sensing agents” (OHIO NORTHERN UNIVERSITY, priority 2016, dated 2019) are described below.

Series [1] in a line: Peak absorption wavelength, peak emission wavelength and fluorescent quantum yield. It counts as physicochemical. Particulars: solvent dichloromethane. An excerpt: Table 2 provides a peak absorption wavelength (λabs maximum), peak emission wavelength (λem maximum), a fluorescent quantum yield (ΦF), and a synthesis yield for the various compounds. The synthesis yield is based on the synthetic pathway illustrated in FIG. 1.

Series [2] is described as follows: Detection of lead in methanol extract of soil. As for the experimental part: A lead-free soil sample was collected, placed into a Buchner funnel, and soaked with 1 mL of 0.15 M Pb(NO3)2 in water to introduce lead to the soil. As a control sample, the same was performed with the lead-free soil without exposure to Pb^2+. After soaking, the soil samples were washed with 50 mL of methanol. A sample from each filtrate was diluted in 3:1 tetrahydrofuran:methanol and exposed to Compound 25. […] This example illustrates that the substituted chromones described herein may be useful in detecting ions from soil extracts.

Series [3] can be described thus: Visual ion selectivity test, excited at 365 nm. Particulars: 3:1 tetrahydrofuran:methanol. The procedure: Compound 25 was dissolved in 3:1 tetrahydrofuran:methanol and then exposed to varying amounts of Zn/SO4 (i.e., Zn^2+), (NH4)2Fe(SO4)2.6H2O (i.e., Fe^2+), Fe2O3 (i.e., Fe^3+), CuSO4 (i.e., Cu^2+), or Pb(NO3)2 (i.e., Pb^2+) each in deionized water. Upon visual inspection when excited at 365 nm, the sample exposed to Pb^2+ turned green while all other samples remained blue.

A short description of series [4]: Extraction of lead from water with octanol and triethylamine. The settings on record: 3 mM Pb(NO3)2, 1 equivalent triethylamine. As for the experimental part: A 3 mM Pb(NO3)2 sample was prepared in deionized water and Compound 25 was added to give a green fluorescence. The lead was then extracted from the water using either 1-octanol or 2-octanol each with 1 equivalent (relative to Compound 25) of triethylamine, which turned the octanol portion green. After washing thrice with 1-octanol, 99% of the Pb^2+ had been extracted from the water. After washing twice with 2-octanol, 83% of the Pb^2+ had been extracted from the water.

A short description of series [5]: Emission spectrum on exposure to varying amounts of lead nitrate. The settings on record: 5 μM compound; 3:1 or 2:1 tetrahydrofuran:methanol; excitation 370 nm. As for the experimental part:
Compound 20 was dissolved in methanol and then exposed to varying amounts of […] (i.e., Pb^2+). […] Therefore, a kit, method, system, or the like may utilize a specific solvent system for detection of lead or other Ions. Alternatively, and especially where the metal ion concentration is unknown, a kit, method, system, or the like may utilize a series of solvent systems in parallel to determine a concentration of metal ions.
A 5 μM sample of Compound 25 in 3:1 tetrahydrofuran:methanol or 2:1 tetrahydrofuran:methanol was prepared and exposed to varying amounts of Pb(NO3)2 (i.e., Pb^2+) dissolved in deionized water.

The nature of series [6]: Visual detection limit, blue to green fluorescence change. Particulars: 5 μM compound in 3:1 tetrahydrofuran:methanol; Pb(NO3)2 in deionized water. As for the experimental part:
The detection limit Pb(NO3)2 (i.e., Pb^2+) for Compound 25 in 3:1 tetrahydrofuran:methanol was tested by exposing samples of 5 μM Compound 25 to ever decreasing concentrations of Pb(NO3)2 dissolved in deionized water.
A 40 mM solution of Pb(NO3)2 (i.e., Pb^2+) was prepared in tap water and then diluted with 3:1 tetrahydrofuran:methanol to a lead concentration of 133 μM. The resultant sample was added to solutions of 5 μM sample of Compound 25 in 3:1 tetrahydrofuran:methanol. […] This example illustrates that the lead detection can be performed using tap water, which includes a variety of other ions.

Marks after values point to notes of the source that are not given here.

On to `COC(=O)C(C)(C)C1Oc2ccc(OC)cc2C(=O)/C1=C\NS(=O)(=O)c1ccc(OC)cc1` (stereo not shown) [Compound 25, (Z)methyl-2-(6-methoxy-3-(((4-methoxyphenyl)sulfonamido)methy-lene)-4-oxochroman-2-yl)-2-methylpropanoate], for which, in series [1], the ΦF is recorded as 69* %, the λabs maximum turned out to be 392 nm and the λem maximum was 527 nm. For the same compound, the “color change with soil extract” value in series [2] (extract from soil exposed to Pb^2+, diluted in 3:1 tetrahydrofuran:methanol) is “color change from blue to green”. For the same compound, the “color change with soil extract” value in series [2] (extract from soil not exposed to Pb^2+, same dilution) is listed as “no color change”. In series [3], the “fluorescence colour of sample exposed to Cu^2+” value is given as “remained blue”, the “fluorescence colour of sample exposed to Fe^2+” value was “remained blue”, the “fluorescence colour of sample exposed to Fe^3+” value was “remained blue” and the “fluorescence colour of sample exposed to Zn^2+” value was “remained blue”. In addition, the “selectivity among heavy metal ions” value in series [3] (Zn^2+, Fe^2+, Fe^3+, Cu^2+, Pb^2+ compared) is listed as “selectivity for Pb^2+ ions over other heavy metal ions”. Besides, the “fluorescence colour of sample exposed to Pb^2+” value in series [3] (excited at 365 nm) is given as “turned green”. Moreover, the “Pb^2+ extracted from the water” value in series [4] (washing thrice with 1-octanol) is 99%. Further, the “Pb^2+ extracted from the water” value in series [4] (washing twice with 2-octanol) stood at 83%. For the same compound, in series [5], the “change of peak emission in the presence of Pb^2+” value was “red-shift and intensity decrease”; the “visual change of fluorescence colour” value was “blue to green”. Further, in series [6], the “speed of the color change” value is on record as “almost instantaneous”.
